Active and inactive are the calls of the source. The rule behind the calls is not given here.
What was measured:
[1] = Cytotoxicity against human ARPE-19 cells assessed as reduction in cell viability incubated for 96 hrs by CellTiter 96 Aqueous One Solution Cell Proliferation Assay; format: toxicity, cell-based
[2] = Cytotoxicity against human HMC3 cells assessed as reduction in cell viability incubated for 96 hrs by CellTiter 96 Aqueous One Solution Cell Proliferation Assay; format: toxicity, cell-based
[3] = Apparent permeability of the compound across apical to basolateral side in human Caco-2 cells expressing Pgp/BCRP at 10 uM incubated for 120 mins by LC-MS/MS analysis; format: ADME, cell-based; conditions: caco-2, 2 h
[4] = Efflux ratio of apparent permeability across basolateral to apical side over apical to basolateral side in human Caco-2 cells expressing Pgp/BCRP at 10 uM incubated for 120 mins by LC-MS/MS analysis; format: ADME, cell-based; conditions: caco-2, 2 h
[5] = Metabolic stability in human liver microsomes assessed as parent compound remaining at 2 uM measured at 60 mins by LC-MS/MS analysis; format: ADME, Microsome; conditions: 1 h
[6] = Apparent permeability of the compound across basal to apical side in human Caco-2 cells expressing Pgp/BCRP at 10 uM incubated for 120 mins by LC-MS/MS analysis; format: ADME, cell-based; conditions: caco-2, 2 h
[7] = Metabolic stability in human liver microsomes assessed as half life at 2 uM measured upto 60 mins by LC-MS/MS analysis; format: ADME, Microsome; conditions: 1 h
[8] = biological target: T1, Proteasome subunit beta type-9 (Homo sapiens, UniProt P28065); assay: Inhibition of human LMP2 using Ac-PAL-AMC as substrate incubated for 1 hr by fluorescence based SpectraMax M5e plate reader
T1 sequence (P28065 whole entry): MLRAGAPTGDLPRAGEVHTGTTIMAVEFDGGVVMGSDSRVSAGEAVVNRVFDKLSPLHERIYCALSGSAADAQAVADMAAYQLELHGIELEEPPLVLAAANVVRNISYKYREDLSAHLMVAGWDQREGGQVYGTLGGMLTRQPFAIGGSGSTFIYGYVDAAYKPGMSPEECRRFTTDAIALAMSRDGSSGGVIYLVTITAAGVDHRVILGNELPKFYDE

[9] = Mutagenicity in Salmonella typhimurium TA98 at 0.01 to 100 uM incubated for 90 mins in absence of liver S9 fraction by AMES test; format: toxicity; conditions: salmonella enterica subsp. enterica serovar typhimurium, s9, 1.5 h, dose 0.01-100 µM
[10] = Mutagenicity in Salmonella typhimurium TA100 at 0.01 to 100 uM incubated for 90 mins in presence of liver S9 fraction by AMES test; format: toxicity, subcellular; conditions: salmonella enterica subsp. enterica serovar typhimurium, s9, 1.5 h, dose 0.01-100 µM
[11] = biological target: T2, Proteasome subunit beta type-9 (Mus musculus) (UniProt P28076); assay: Covalent inhibition of LMP2 in mouse BV-2 cells assessed as band shift at 0.3 to 3 uM incubated for 24 hrs by Western blot analysis; format: cell-based; conditions: dose 0.3-3 µM
T2 sequence (whole entry): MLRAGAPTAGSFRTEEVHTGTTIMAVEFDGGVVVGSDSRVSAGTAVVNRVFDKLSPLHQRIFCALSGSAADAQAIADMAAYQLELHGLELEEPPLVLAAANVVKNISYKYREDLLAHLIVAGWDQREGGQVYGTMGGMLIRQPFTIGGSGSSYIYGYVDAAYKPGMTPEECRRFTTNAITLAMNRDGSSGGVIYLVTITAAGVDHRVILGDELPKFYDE

[12] = tested on: HMC3; assay: Cytotoxicity against human HMC3 cells assessed as reduction in cell viability at 30 to 100 uM incubated for 96 hrs by CellTiter 96 Aqueous One Solution Cell Proliferation Assay; format: toxicity, cell-based; conditions: hmc3, 96 h, dose 30-100 µM
[13] = Mutagenicity in Salmonella typhimurium TA100 at 0.01 to 100 uM incubated for 90 mins in absence of liver S9 fraction by AMES test; format: toxicity; conditions: salmonella enterica subsp. enterica serovar typhimurium, s9, 1.5 h, dose 0.01-100 µM
[14] = tested on: ARPE-19; assay: Cytotoxicity against human ARPE-19 cells assessed as reduction in cell viability at 30 to 100 uM incubated for 96 hrs by CellTiter 96 Aqueous One Solution Cell Proliferation Assay; format: toxicity, cell-based; conditions: arpe-19, 96 h, dose 30-100 µM
[15] = Mutagenicity in Salmonella typhimurium TA98 at 0.01 to 100 uM incubated for 90 mins in presence of liver S9 fraction by AMES test; format: toxicity, subcellular; conditions: salmonella enterica subsp. enterica serovar typhimurium, s9, 1.5 h, dose 0.01-100 µM
[16] = Mutagenicity in Salmonella typhimurium TA98 at 1 mg/ml incubated for 90 mins in absence of liver S9 fraction by AMES test; format: toxicity; conditions: salmonella enterica subsp. enterica serovar typhimurium, s9, 1.5 h

Structure (SMILES)	Papp [3]	Ratio [4]	Stability [5]	Papp [6]	t1/2 [7]	IC50 [8]	inhibition [11]	IC50 at 96 h [1]	IC50 at 96 h [2]	Activity [9]	Activity [10]	Activity [12]	Activity [13]	Activity [14]	Activity [15]	Activity [16]
C[C@]1(C(=O)[C@H](Cc2ccccc2)NC(=O)[C@H](CO)NC(=O)c2cccc(=O)[nH]2)CO1	–	–	–	–	–	–	–	> 30000 nM	24100 nM	–	–	–	–	–	–	–
CC(C)C[C@H](NC(=O)[C@@H]1COCCCCCC(=O)NCC(=O)N2CCC[C@H]2C(=O)N1)C(=O)[C@@]1(C)CO1	0.454 10^-6 cm/s	21.7	46.4%	7.25 10^-6 cm/s	55.3 min	–	–	–	–	–	–	–	–	–	–	–
C[C@]1(C(=O)[C@H](CC2=CCCC2)NC(=O)[C@@H]2Cc3ccc(cc3)OCCCCCCCC(=O)N3CCC[C@H]3C(=O)N2)CO1	2.44 10^-6 cm/s	0.43	Unstable	1.05 10^-6 cm/s	–	220 nM	–	–	–	–	–	–	–	–	–	–
C[C@]1(C(=O)[C@H](Cc2ccccc2)NC(=O)[C@@H]2Cc3ccc(cc3)OCCCCCCCC(=O)N3CCC[C@H]3C(=O)N2)CO1	5.91 10^-6 cm/s	0.56	Unstable	3.33 10^-6 cm/s	1.35 min	–	–	–	–	–	–	–	–	–	–	–
CC(C)C[C@H](NC(=O)[C@H](CCc1ccccc1)NC(=O)CN1CCOCC1)C(=O)N[C@@H](Cc1ccccc1)C(=O)N[C@@H](CC(C)C)C(=O)[C@@]1(C)CO1 [CARFILZOMIB]	0.558 10^-6 cm/s	9.33	Unstable	5.16 10^-6 cm/s	1.34 min	–	–	58 nM	16 nM	–	–	–	–	–	–	–
CC(C)C[C@H](NC(=O)[C@@H]1COCCCCCCC(=O)NCC(=O)N2CCC[C@H]2C(=O)N1)C(=O)[C@@]1(C)CO1	0.39 10^-6 cm/s	22.2	17%	8.64 10^-6 cm/s	24.1 min	–	–	–	–	–	–	–	–	–	–	–

The next lines start with results.

Papp [3]	Ratio [4]	Stability [5]	Papp [6]	t1/2 [7]	IC50 [8]	inhibition [11]	Structure (SMILES)	IC50 at 96 h [1]	IC50 at 96 h [2]	Activity [9]	Activity [10]	Activity [12]	Activity [13]	Activity [14]	Activity [15]	Activity [16]
7.52 10^-6 cm/s	1.68	4.57%	12.6 10^-6 cm/s	13.4 min	127 nM	–	C[C@]1(C(=O)[C@H](Cc2ccccc2)NC(=O)[C@@H]2COCCCCCC(=O)N3C[C@H](F)C[C@H]3C(=O)N2)CO1	–	–	–	–	–	–	–	–	–
8.03 10^-6 cm/s	1.13	0.3%	9.06 10^-6 cm/s	8.29 min	137 nM	Active	C[C@]1(C(=O)[C@H](CC2=CCCC2)NC(=O)[C@@H]2COCCCCCC(=O)N3C[C@H](F)C[C@H]3C(=O)N2)CO1	> 100000 nM	> 100000 nM	Non-Toxic	Non-Toxic	Non-Toxic	Non-Toxic	Non-Toxic	Non-Toxic	–
29.1 10^-6 cm/s	0.52	13.5%	14.4 10^-6 cm/s	21.6 min	–	–	CC(C)C[C@H](NC(=O)[C@@H]1COCCCCCC(=O)N2CC(F)(F)C[C@H]2C(=O)N1)C(=O)[C@@]1(C)CO1	> 100000 nM	> 100000 nM	–	–	Non-Toxic	–	Non-Toxic	–	Toxic
6.8 10^-6 cm/s	2.17	38.8%	14.8 10^-6 cm/s	43 min	–	–	CC(C)C[C@H](NC(=O)[C@@H]1COCCCCCC(=O)N2CC[C@H]2C(=O)N1)C(=O)[C@@]1(C)CO1	> 100000 nM	> 30000 nM	Non-Toxic	Non-Toxic	Non-Toxic	Non-Toxic	Non-Toxic	Non-Toxic	–
